molecular target: T1, HoxEFU (Synechocystis sp. PCC 6803, UniProt P74024); test: intrinsic protein fluorescence/FRET titration, equilibrium binding isotherm; settings: Hill fit (cooperative); excitation 285 nm, emission 348 nm
T1 construct: gene hoxF; heterotrimeric diaphorase subcomplex without HoxYH; Strep-II tag with Ser-Ala linker at C-terminus of HoxF; codon-optimised, pET21, E. coli BL21 deltaiscR; anaerobic purification; with Bidirectional [NiFe] hydrogenase diaphorase subunit HoxE; Bidirectional [NiFe] hydrogenase diaphorase subunit HoxU
T1 sequence (P74024 1-533): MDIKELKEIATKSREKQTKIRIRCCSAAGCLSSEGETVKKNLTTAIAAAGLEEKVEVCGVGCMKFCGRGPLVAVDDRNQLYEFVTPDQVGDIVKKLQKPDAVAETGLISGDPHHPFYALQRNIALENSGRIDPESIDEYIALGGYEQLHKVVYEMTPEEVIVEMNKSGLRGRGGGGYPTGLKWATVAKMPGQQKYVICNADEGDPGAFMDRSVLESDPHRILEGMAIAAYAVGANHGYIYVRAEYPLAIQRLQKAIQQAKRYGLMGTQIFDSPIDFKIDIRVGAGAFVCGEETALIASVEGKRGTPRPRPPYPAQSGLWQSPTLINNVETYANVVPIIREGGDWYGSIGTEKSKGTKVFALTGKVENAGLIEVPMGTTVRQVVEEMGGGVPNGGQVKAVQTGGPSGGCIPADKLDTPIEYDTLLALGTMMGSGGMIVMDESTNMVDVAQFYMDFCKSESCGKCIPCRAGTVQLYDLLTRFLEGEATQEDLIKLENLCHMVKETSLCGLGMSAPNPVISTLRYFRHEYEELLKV
T1 sequence (P74025 1-173 partner): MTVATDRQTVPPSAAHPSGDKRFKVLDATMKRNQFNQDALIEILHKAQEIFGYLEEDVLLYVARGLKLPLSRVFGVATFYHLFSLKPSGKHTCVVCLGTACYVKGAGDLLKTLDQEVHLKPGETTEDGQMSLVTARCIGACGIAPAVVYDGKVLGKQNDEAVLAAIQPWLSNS
T1 sequence (P74022 1-238 partner): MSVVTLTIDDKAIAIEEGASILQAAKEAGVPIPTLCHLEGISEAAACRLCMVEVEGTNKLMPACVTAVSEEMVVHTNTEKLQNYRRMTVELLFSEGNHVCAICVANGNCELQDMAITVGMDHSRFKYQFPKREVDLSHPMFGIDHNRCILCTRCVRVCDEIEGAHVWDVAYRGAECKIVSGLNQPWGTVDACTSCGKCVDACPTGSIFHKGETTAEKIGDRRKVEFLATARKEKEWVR

Kd [µM] | SMILES
1350 ± 70 | NC(=O)c1ccc[n+]([C@@H]2O[C@H](COP(=O)(O)OP(=O)(O)OC[C@H]3O[C@@H](n4cnc5c(N)ncnc54)[C@H](O)[C@@H]3O)[C@@H](O)[C@H]2O)c1 [NAD^+]
32 | NC(=O)C1=CN([C@@H]2O[C@H](COP(=O)(O)OP(=O)(O)OC[C@H]3O[C@@H](n4cnc5c(N)ncnc54)[C@H](O)[C@@H]3O)[C@@H](O)[C@H]2O)C=CC1 [NADH]
1950 ± 270 | NC(=O)c1ccc[n+]([C@@H]2O[C@H](COP(=O)(O)OP(=O)(O)OC[C@H]3O[C@@H](n4cnc5c(N)ncnc54)[C@H](OP(=O)(O)O)[C@@H]3O)[C@@H](O)[C@H]2O)c1 [NADP^+]

Source: publication PMC7363133, “The structure and reactivity of the HoxEFU complex from the cyanobacterium Synechocystis sp. PCC 6803” (The Journal of Biological Chemistry, 2020)
